The text below walks through data of patent publication US5158963A, “1-4-dihydropyridine derivative, process for preparing the same and pharmaceutical composition containing the same” (Kaken Pharmaceutical Co., Ltd., priority 1989, dated 1992).

Data set [1] has as its system tonic extensive convulsion caused by pentylenetetrazole. Description: Activity against convulsion caused by pentylenetetrazole in mice. The note with it: oral. Type of data set: in vivo, mouse (Slc:ddy male mice). As for the experimental part:
In each group 4-8 Slc:ddy male mice weighing 24 to 32 g (5 weeks) were bred at room temperature of 22° to 24° C. under an environment of 60% humidity for 1 week, and then the bred mice were subjected to the following test. The test was carried out as the following procedure. One hour after the oral administration of a test compound, 40 mg/kg of pentylenetetrazole was administered in a caudal vein. Appearance of tonic extensive convulsion caused by pentylenetetrazole was measured as indication, and anticonvulsive activity was examined. Each of test compound was suspended in a 0.5% solution of methyl cellulose used as a control group.

In data set [2] the test system is immobility time of forced swimming test. Put plainly: Activity against immobility time of forced swimming test in mice. Type of data set: in vivo, mouse (Slc:ICR male mice). The note with it: oral. How it is done: In each group 6 Slc:ICR male mice weighing 25 to 32 g (5 weeks) were bred at the room temperature of 22° to 24° C. under an environment of 60% humidity for 1 week, and then the bred mice were subjected to the following test. The test was carried out by monitering action to voluntarily escape with TV camera when a mouse was put into a cylinder of which inner diameter was 11 cm wherein 17 cm of water being the temperature 25° C. as added. As indication immobility time for 6 minutes was measured. In the test mice were employed which were compulsorily swun for 6 minutes in once per day for continuous 3 day. The investigation for immobility time was carried out by measuring immobility time for 6 minutes 1 hour after oral administration of a test compound. Each of test compound was suspended in a 0.5% solution of methyl cellulose used as a control group. Significant difference is shown with the significance level (* : p<0.05) obtained by comparing data of control group by LSD method.

In data set [3] the test system is tonic extensive convulsion (maximal electroshock-induced seizures). Put plainly: Activity against maximal electroshock-induced seizures in mice. The note with it: oral. In kind it is in vivo, mouse (Slc:ddy male mice). The text has this: In each group six Slc: ddy male mice weighing 26 to 31 g (5 weeks) were employed. Sixty minutes after oral administration of a test compound, corneal electrodes which were wet by physiological saline were contacted with both eyes of a mouse. Then, appearance of tonic extensive convulsion (TE) caused by electrifying under a stimulation condition of 50 mA, 1000 V and 0.2 sec by means of the apparatus of Woodburg & Davenport (made by Kyoto Keisokuki) was judged as indication.
Each of diphenylhydantoin, the compounds Nos. 2, 4, 5, 6, 7, 50, 51 and 52 of the present invention (refer Table 1, hereinafter the same) and nimodipine was suspended in a 0.5% solution of methyl cellulose to subject the test. Flunarizine was suspended in a 5% solution of gum arabic to subject the test.

In data set [4] the test system is blood pressure. Description: Activity for blood pressure in rats. As to conditions: oral; for Blood pressure: 100 mg/kg. In kind it is in vivo, rat (Wister male rats). As for the experimental part:
In each group 4 Wister male rats weighing 200 to 300 g (10 to 15 weeks) were employed. The day before a test, rats were anesthetized with eter, and a polyethylene tube was inserted into aorta abdominalis of a rat. The other end of the polyethylene tube was led out of the rat's body. The led polyethylene tube was connected with a pressure transducer (RM-85, made by Yamamoto Kohden). Blood pressure was measured under a condition of no restriction.

The nature of data set [5]: Acute toxicity in mice. Details: species or system mouse (Slc:ddy male mice). As to conditions: in vivo; mouse, oral administration, death rate after 7 days. How it is done: The compound No. 2 of the present invention was orally administered to 5-15 in each group Slc:ddy male mice weighing 24 to 32 g (5 weeks). With death rate after 7 days value of acute toxicity was measured.

In data set [6] the test system is decapitation induced hypoxia. Put plainly: Activity against decapitation induced hypoxia in mice. Type of data set: in vivo, mouse (Slc:ddy male mice). As to conditions: oral; for inhibition in vivo at 10 mg/kg / inhibition in vivo at 30 mg/kg: Mus musculus, 1 h, 60 min before decapitation, duration of gasping vs control, read-out: Inhibition rate. How it is done: In each group five Slc:ddy male mice weighing 20 to 22 g (4 weeks) were employed. Sixty minutes after oral administration of a test compound, mice were decapitated with a guillotine. After the decapitation, duration of gasping of head was measured with a timer (CT-916 Type, made by HATTORI SEIKO CO., LTD.) gearing into the guillotine.
Each of test compound was suspended in a 0.5% solution of methyl cellulose and administered. Inhibition rate was calculated by comparing with a 0.5% aqueous solution of methyl cellulose as control. That is, the inhibition rate was calculated by the following formula. [formula]

For data set [7] the following is noted: administered over an extended period of time; cited from earlier work.

“Also recorded” adds a separate entry of the source.

The LD50 is the dose at which mortality reaches 50%. Read a low LD50 as a more toxic substance. Consider `C#Cc1cccc(C2C(C(=O)OCC)=C(C)NC(C)=C2C(=O)OCC)c1` [Compound No. 2, 3,5-Diethoxycarbonyl-1,4-dihydro-2,6-dimethyl-4-(3ethynylphenyl)pyridine], for which the “effect on tonic extensive convulsion caused by pentylenetetrazole (in words)” value in data set [1] is “inhibited the tonic extensive convulsion; also recorded: approximately the same extent of the effect of the positive control drug diphenylhydantoin; also recorded: stronger effect than the effect of nimodipine and the effect of nicardipine”. Moreover, the “effect on the immobility time (in words)” value in data set [2] (100 mg/kg) is reported as “showed the effect on the immobility time”. Besides, in data set [2], the “effect on immobility time of forced swimming test (in words)” value was “immobility time of forced swimming test reduced”. Besides, the “inhibitory activity against tonic extensive convulsion (share of cases)” value in data set [3] (100 mg/kg) is “two thirds”; in data set [3] (200 mg/kg), “all cases”. Further, the Blood pressure in data set [4] (after 15 min.) is reported as 100.6 mmHg; in data set [4] (after 30 min.), 98.4 mmHg; in data set [4] (after 60 min.) it was 94.8 mmHg; in data set [4] (after 120 min.) it was 92.9 mmHg. Moreover, in data set [4] (normal rats), the “activity for decreasing blood pressure (in words)” value is reported as “very weak activity for decreasing blood pressure”. The LD50 at 168 h in data set [5] worked out at 534 mg/kg. In addition, the inhibition in vivo at 10 mg/kg in data set [6] was determined as 10.8%. Also, the inhibition in vivo at 30 mg/kg in data set [6] worked out at 20.5%. In addition, the “effect in decapitation induced hypoxia (in words)” value in data set [6] was “same extent effect as that of flunarizine; also recorded: stronger effect than that of nimodipine and that of nicardipine”.
In the case of `Fc1ccc(C(c2ccc(F)cc2)N2CCN(C/C=C/c3ccccc3)CC2)cc1` [Flunarizine, reference compound], in data set [7], the “side effects caused by central nervous system inhibitory activity” value was “Parkinson symptom and depression symptom”. Also, the “effect on immobility time of forced swimming test (in words)” value in data set [2] is on record as “ineffective; also recorded: no effect”. The “inhibitory activity against tonic extensive convulsion (share of cases)” value in data set [3] (100 mg/kg) is on record as “a third”; in data set [3] (200 mg/kg), “five sixths”. For the same compound, in data set [6], the inhibition in vivo at 10 mg/kg turned out to be 12.1%. Besides, the inhibition in vivo at 30 mg/kg in data set [6] stood at 24.3%.
